Literature values, collected in patent publication US20260053764A1, “COMPOSITION FOR PREVENTING DETERIORATION IN COGNITIVE FUNCTION AND/OR IMPROVING COGNITIVE FUNCTION” (PHARMA FOODS INTERNATIONAL CO., LTD., priority 2020, published 2026).

Test system: cognitive function of elderly people
Settings: continuous ingestion for a year; cited from earlier work

| Structure (SMILES) | reasoning measured by the CNS Vital Signs examination method |
| --- | --- |
| CC1=C[C@H](O)CC(C)(C)[C@H]1/C=C/C(C)=C/C=C/C(C)=C/C=C/C=C(C)/C=C/C=C(C)/C=C/C1=C(C)C[C@@H](O)CC1(C)C [lutein] | no improvement |
| CC1=C(/C=C/C(C)=C/C=C/C(C)=C/C=C/C=C(C)/C=C/C=C(C)/C=C/C2=C(C)C[C@@H](O)CC2(C)C)C(C)(C)C[C@H](O)C1 [zeaxanthin] | no improvement |
